SMILES strings stand for the structures.

For assay [1] the following is noted: Curran et al, J. Med. Chem. 1974, p 273; cited from earlier work.
The subject of assay [2] is left ventricular dp/dt max. Kind of assay: Cardiac stimulant activity in vivo in anaesthetised cats (left ventricular dp/dt max, i.v.). The arrangement: species or system cat; key to Relative Duration: ***: Long; **: medium; *: short. The settings on record: for ED50: Felis catus, read-out: ED50 (dose to increase left ventricular dp/dt max by 50%), intravenous, anaesthetised cats pretreated with ganglion blocker (mecamylamine or pempidine) and propranolol; for Relative Duration: estimated in the anaesthetised cats following i.v. administration.

For assay [3], the system named is ventricular strips. Kind of assay: Cardiac stimulant activity in vitro: force of contraction of electrically stimulated guinea pig right ventricular strips. The conditions noted are these: Cavia porcellus; 50% increase in force of contraction; 0.5 Hz stimulation, Krebs Henseleit solution, 37° C. As for the experimental part: The compounds of formula (I) and their pharmaceutically acceptable salts are tested for cardiac stimulant activity following a procedure based on that of S. […]. Pharm & Exp. Therapeutics, 200, 352-362 (1977)). Guinea pigs (500-700 g) of either sex are sacrificed and the hearts are quickly removed and transferred to a dissecting dish containing oxygenated bathing fluid. While in the bathing medium, the right ventricle is cut into two strips. The strips are each suspended in a 75 ml bath containing Krebs Henseleit solution at 37° C. and the bath is bubbled with 95% oxygen and 5% carbon dioxide. The ventricular strips are electrically stimulated at a frequency of 0.5 Hz, at double the threshold voltage. A resting tension of 1.0 g is applied to the strips and the tension is kept constant by readjustment during an equilibration period of 60 minutes. The bathing fluid is frequently changed during this period. When a steady base line is obtained, a compound under test is added to the bathing fluid and a cumulative concentration response curve is plotted. […] In the above test method the compounds of the Examples gave the following data : […]

As for `COc1ccc2c(c1)CCC1CC(=O)NN=C21` (stereo not drawn) [8-Methoxy-4,4a,5,6-tetrahydrobenzo[h]cinnolin-3[2H]-one], in assay [1], the hypotensive activity result is reported as “not showing any hypotensive activity”.

Regarding `Nc1ccc2c(c1)CC1CC(=O)NN=C21` (stereo not drawn) [Example 1, 7-Amino-4,4a-dihydro-[5H]-indeno[1,2-c]pyridazin-3[2H]-one], in assay [2], the ED50 worked out at 1.8 µmol/kg and the “Relative Duration” value is “**”. In assay [3], this compound showed an EC50 of 14 µM.

Regarding `CC12CC(=O)NN=C1c1ccc(C(N)=O)cc1C2` (stereo not drawn) [Example 3, 7-Carboxamido-4,4a-dihydro-4a-methyl-[5H]-indeno[1,2-C]-pyridazin-3[2H]-one], in assay [2], the ED50 turned out to be 0.4 µmol/kg and the “Relative Duration” value is listed as “*”. The compound further returned an EC50 in assay [3] of 27 µM.

Regarding `COc1ccc2c(c1)CC1(C)CC(=O)NN=C21` (stereo not drawn) [Example 7, 4,4a-Dihydro-7-methoxy-4a-methyl-[5H]-indeno[1,2-c]-pyridazin-3[2H]-one], in assay [2], the ED50 is 1.4 µmol/kg and the “Relative Duration” value was “**”. Besides, the EC50 in assay [3] is 21 µM.

As for `COc1ccc2c(c1)CCC1(C)CC(=O)NN=C21` (stereo not drawn) [Example 10, 8-Methoxy-4a-methyl-4,4a,5,6-tetrahydrobenzo[h]cinnolin-3[2H]-one], in assay [2], the ED50 was 0.2 µmol/kg and the “Relative Duration” value is “*”. This compound also yielded an EC50 in assay [3] of 23 µM.

For the compound `CN=C(NC#N)Nc1ccc2c(c1)CCC1CC(=O)NN=C21` (stereo not drawn) [Example 15, 8-(N^2 -Methyl-N^3-cyanoguanidino)-4,4a,5,6-tetrahydrobenzo-[h]cinnolin-3[2H]-one], in assay [2], the ED50 is 1.2 µmol/kg and the “Relative Duration” value was “**”. The same compound had an EC50 in assay [3] of 22 µM.

As to `NC(=O)c1ccc2c(c1)CCC1CC(=O)NN=C21` (stereo not drawn) [Example 17, 8-Carboxamido-4,4a,5,6-tetrahydrobenzo[h]cinnolin-3[2H]-one], in assay [2], the ED50 stood at 1.2 µmol/kg and the “Relative Duration” value is listed as “**”.

As for `CC12CCc3cc(C(N)=O)ccc3C1=NNC(=O)C2` (stereo not drawn) [Example 19, 8-Carboxamido-4a-methyl-4,4a,5,6-tetrahydrobenzo[h]cinnolin-3[2H]-one], in assay [2], the ED50 amounted to 1.6 µmol/kg and the “Relative Duration” value was “**”.

As to `COc1ccc2c(c1)CCc1cc(=O)[nH]nc1-2` [dehydro analogue, 5,6-Dihydro-8-methoxybenzo[h]cinnolin-3[2H]-one], the hypotensive activity entry in assay [1] was “not showing any hypotensive activity”.

The record behind these values is patent publication US4755511A, “Tricyclic pyridazinone compounds” (Smith Kline & French Laboratories Limited, priority 1984, dated 1988).
